{"source": "ChEMBL document CHEMBL3616403", "about": "“Probing a 3,4'-bis-guanidinium diaryl derivative as an allosteric inhibitor of the Ras pathway” (Bioorg Med Chem Lett, 2015)", "key": {"[1]": {"assay": "Cytotoxicity against human F-6-8 cells expressing B-Raf V600E mutant assessed as cell viability after 72 hrs by MTT assay", "type": "functional, cell-based"}, "[2]": {"assay": "Cytotoxicity against human T29 cells expressing wild type B-Raf assessed as cell viability after 72 hrs by MTT assay", "type": "functional, cell-based", "conditions": "T29, 72 h"}, "[3]": {"assay": "Cell cycle arrest in human T29 cells assessed as increase in cell level at pre-G1 phase at 10 uM after 72 hrs by propidium iodide staining-based flow cytometric analysis", "type": "functional"}, "[4]": {"assay": "Cell cycle arrest in human T29 cells assessed as decrease in cell level at S phase at 5 to 10 uM after 48 to 72 hrs by propidium iodide staining-based flow cytometric analysis", "type": "functional"}, "[5]": {"target": "Serine/threonine-protein kinase B-raf (Homo sapiens) (UniProt P15056)", "sequence (P15056 whole entry)": "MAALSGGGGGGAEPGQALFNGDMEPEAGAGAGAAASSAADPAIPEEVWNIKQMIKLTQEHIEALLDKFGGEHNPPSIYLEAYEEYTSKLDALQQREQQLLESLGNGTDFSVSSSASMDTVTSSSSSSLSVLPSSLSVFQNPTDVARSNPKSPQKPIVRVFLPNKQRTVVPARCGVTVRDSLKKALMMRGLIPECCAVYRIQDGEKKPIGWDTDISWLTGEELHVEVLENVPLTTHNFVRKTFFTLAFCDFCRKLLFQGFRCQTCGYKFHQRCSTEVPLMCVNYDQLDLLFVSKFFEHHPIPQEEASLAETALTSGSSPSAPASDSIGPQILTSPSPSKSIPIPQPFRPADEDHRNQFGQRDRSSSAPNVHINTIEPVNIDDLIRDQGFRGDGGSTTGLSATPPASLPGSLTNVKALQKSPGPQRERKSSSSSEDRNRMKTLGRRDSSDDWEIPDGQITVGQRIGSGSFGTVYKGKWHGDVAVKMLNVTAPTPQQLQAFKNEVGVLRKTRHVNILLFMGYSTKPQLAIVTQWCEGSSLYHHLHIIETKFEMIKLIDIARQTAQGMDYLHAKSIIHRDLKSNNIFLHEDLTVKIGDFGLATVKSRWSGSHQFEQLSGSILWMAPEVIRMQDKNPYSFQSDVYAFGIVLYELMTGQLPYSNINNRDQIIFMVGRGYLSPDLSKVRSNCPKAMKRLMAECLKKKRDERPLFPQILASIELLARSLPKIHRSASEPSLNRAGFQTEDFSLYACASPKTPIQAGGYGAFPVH", "assay": "Inhibition of recombinant B-Raf (unknown origin) expressed in HEK293 cells using MEK1 peptide as substrate at 20 uM after 15 mins by radiometric assay in presence of [gamma-32P]ATP"}, "T29 [6]": {"system": "T29", "assay": "Cytotoxicity against human T29 cells assessed as increase in cell shrinkage at 10 uM after 24 hrs by inverted microscopic analysis", "type": "functional, cell-based"}, "[7]": {"assay": "Cell cycle arrest in human T29 cells assessed as increase in cell level at pre-G1 phase at 5 uM after 72 hrs by propidium iodide staining-based flow cytometric analysis", "type": "functional"}, "[8]": {"target": "Epidermal growth factor receptor (Homo sapiens) (UniProt P00533)", "sequence (P00533 whole entry)": "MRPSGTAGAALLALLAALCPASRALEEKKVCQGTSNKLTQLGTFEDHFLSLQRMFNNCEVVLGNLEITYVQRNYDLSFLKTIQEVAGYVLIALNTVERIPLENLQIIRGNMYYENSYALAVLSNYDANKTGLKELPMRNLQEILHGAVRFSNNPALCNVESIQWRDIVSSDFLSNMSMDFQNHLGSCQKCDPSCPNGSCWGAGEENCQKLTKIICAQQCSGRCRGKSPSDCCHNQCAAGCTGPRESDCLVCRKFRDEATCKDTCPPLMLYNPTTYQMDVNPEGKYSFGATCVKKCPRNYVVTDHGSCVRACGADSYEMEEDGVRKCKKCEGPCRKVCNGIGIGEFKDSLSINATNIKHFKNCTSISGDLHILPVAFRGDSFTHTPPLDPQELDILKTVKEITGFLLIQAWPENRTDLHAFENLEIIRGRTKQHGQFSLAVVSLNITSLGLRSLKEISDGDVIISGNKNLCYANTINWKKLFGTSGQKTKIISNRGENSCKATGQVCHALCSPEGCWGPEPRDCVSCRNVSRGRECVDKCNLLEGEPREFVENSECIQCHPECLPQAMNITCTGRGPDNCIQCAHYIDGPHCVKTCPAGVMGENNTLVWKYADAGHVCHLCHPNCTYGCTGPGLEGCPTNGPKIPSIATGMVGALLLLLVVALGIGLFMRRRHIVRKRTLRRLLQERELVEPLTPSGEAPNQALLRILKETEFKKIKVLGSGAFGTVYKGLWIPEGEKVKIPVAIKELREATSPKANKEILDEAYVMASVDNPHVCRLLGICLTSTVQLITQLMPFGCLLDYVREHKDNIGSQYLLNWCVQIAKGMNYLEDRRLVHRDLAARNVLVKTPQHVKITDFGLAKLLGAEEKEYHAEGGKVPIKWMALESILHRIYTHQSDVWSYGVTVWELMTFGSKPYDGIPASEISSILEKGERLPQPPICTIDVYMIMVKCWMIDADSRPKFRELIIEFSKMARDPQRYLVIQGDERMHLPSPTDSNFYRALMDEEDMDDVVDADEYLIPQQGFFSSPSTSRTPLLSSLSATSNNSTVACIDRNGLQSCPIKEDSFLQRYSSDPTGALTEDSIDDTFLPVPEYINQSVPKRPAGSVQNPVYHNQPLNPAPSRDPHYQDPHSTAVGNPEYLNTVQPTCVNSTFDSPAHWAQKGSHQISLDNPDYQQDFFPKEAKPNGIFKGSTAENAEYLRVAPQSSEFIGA", "assay": "Inhibition of EGFR in human T29 cells assessed as suppression of Src phosphorylation at Tyr416 after 24 hrs by Western blot analysis", "type": "cell-based"}, "[9]": {"assay": "Cell cycle arrest in human T29 cells assessed as increase in cell level at pre-G1 phase at 10 uM after 48 hrs by propidium iodide staining-based flow cytometric analysis", "type": "functional"}, "[10]": {"assay": "Selectivity ratio of IC50 for human F-6-8 cells expressing B-Raf V600E mutant to IC50 for human T29 cells expressing wild type B-Raf", "type": "functional"}, "[11]": {"target": "Epidermal growth factor receptor (Homo sapiens) (UniProt P00533)", "assay": "Inhibition of EGFR in human T29 cells assessed as suppression of MEK phosphorylation at Ser217/Ser221 after 24 hrs by Western blot analysis", "type": "cell-based"}, "T29 [12]": {"system": "T29", "assay": "Cytotoxicity against human T29 cells assessed as increase in membrane blebbing at 10 uM after 24 hrs by inverted microscopic analysis", "type": "functional, cell-based"}, "T29 [13]": {"system": "T29", "assay": "Cytotoxicity against human T29 cells assessed as cell detachment from culture dish at 10 uM after 24 hrs by inverted microscopic analysis", "type": "functional, cell-based"}, "[14]": {"assay": "Cell cycle arrest in human T29 cells assessed as decrease in cell level at G2/M phase at 5 to 10 uM after 48 to 72 hrs by propidium iodide staining-based flow cytometric analysis", "type": "functional"}, "[15]": {"assay": "Cell cycle arrest in human T29 cells assessed as decrease in cell level at G0/G1 phase at 5 to 10 uM after 48 to 72 hrs by propidium iodide staining-based flow cytometric analysis", "type": "functional"}, "T29 [16]": {"system": "T29", "assay": "Cytotoxicity against human T29 cells assessed as increase in nuclear fragmentation at 10 uM after 24 hrs by inverted microscopic analysis", "type": "functional, cell-based"}, "[17]": {"target": "Epidermal growth factor receptor (Homo sapiens) (UniProt P00533)", "assay": "Inhibition of EGFR in human T29 cells assessed as suppression of ERK phosphorylation at Tyr204 after 24 hrs by Western blot analysis", "type": "cell-based"}, "[18]": {"target": "Epidermal growth factor receptor (Homo sapiens) (UniProt P00533)", "assay": "Inhibition EGFR in human T29 cells assessed as suppression of STAT3 phosphorylation at Tyr705 after 24 hrs by Western blot analysis", "type": "cell-based"}, "[19]": {"target": "Serine/threonine-protein kinase B-raf (Homo sapiens) (UniProt P15056)", "assay": "Competitive inhibition of recombinant B-Raf (unknown origin) expressed in HEK293 cells up to 100 uM after 60 to 120 mins by FRET analysis in presence of ATP", "type": "cell-based"}, "[20]": {"target": "Epidermal growth factor receptor (Homo sapiens) (UniProt P00533)", "assay": "Inhibition of EGFR autophosphorylation at Tyr1068 in human T29 cells after 24 hrs by Western blot analysis", "type": "cell-based"}, "T29 [21]": {"system": "T29", "assay": "Induction of apoptosis in human T29 cells assessed as PARP cleavage at 10 uM after 24 hrs by Western blot analysis", "type": "functional, cell-based"}, "[22]": {"target": "Epidermal growth factor receptor (Homo sapiens) (UniProt P00533)", "assay": "Inhibition of EGFR in human T29 cells assessed as suppression of AKT phosphorylation at mTORC2 site, Ser473 after 24 hrs by Western blot analysis", "type": "cell-based"}, "[23]": {"assay": "Cell cycle arrest in human T29 cells assessed as increase in cell level at pre-G1 phase at 5 uM after 48 hrs by propidium iodide staining-based flow cytometric analysis", "type": "functional"}, "[24]": {"target": "Epidermal growth factor receptor (Homo sapiens) (UniProt P00533)", "assay": "Inhibition of EGFR in human T29 cells assessed as suppression of C-Raf phosphorylation at p-21-activated protein kinase site, Ser338 after 24 hrs by Western blot analysis", "type": "cell-based"}}, "note": "The source made the active and inactive calls. The rule behind the calls is not given here.", "data": [{"smiles": "CC(=O)Nc1cccc(Nc2ccc(NC(=N)Nc3ccc(Cl)c(C(F)(F)F)c3)cc2)c1", "values": [{"measurement": "IC50", "setting": "[1]", "result": 6.6, "unit": "µM"}, {"measurement": "IC50", "setting": "[2]", "result": 4.1, "unit": "µM"}]}, {"smiles": "N=C(N)Nc1ccc(Oc2cccc(NC(=N)N)c2)cc1", "values": [{"measurement": "IC50", "setting": "[1]", "result": 9.8, "unit": "µM"}, {"measurement": "IC50", "setting": "[2]", "result": 6.5, "unit": "µM"}]}, {"smiles": "CNC(=O)c1cc(Oc2ccc(NC(=O)Nc3ccc(Cl)c(C(F)(F)F)c3)cc2)ccn1", "note": "[SORAFENIB]", "values": [{"measurement": "IC50", "setting": "[1]", "result": 1.3, "unit": "µM"}, {"measurement": "IC50", "setting": "[2]", "result": 0.9, "unit": "µM"}]}, {"smiles": "N=C(N)Nc1cccc(Cc2ccc(NC(=N)Nc3ccc(Cl)c(C(F)(F)F)c3)cc2)c1", "values": [{"measurement": "IC50", "setting": "[1]", "result": 7.6, "unit": "µM"}, {"measurement": "IC50", "setting": "[2]", "result": 4.5, "unit": "µM"}]}, {"smiles": "N=C(N)Nc1ccc(Oc2cccc(NC(=N)Nc3ccc(Cl)c(C(F)(F)F)c3)c2)cc1", "values": [{"measurement": "Activity", "setting": "[3]", "result": 38.7, "unit": "%"}, {"measurement": "Activity", "setting": "[4]", "result": "Active"}, {"measurement": "inhibition", "setting": "[5]", "result": "Active"}, {"measurement": "Activity", "setting": "T29 [6]", "result": "Active"}, {"measurement": "Activity", "setting": "[7]", "result": 22.5, "unit": "%"}, {"measurement": "IC50", "setting": "[1]", "result": 2.6, "unit": "µM"}, {"measurement": "inhibition", "setting": "[8]", "result": "Dose-dependent effect"}, {"measurement": "Activity", "setting": "[9]", "result": 20.7, "unit": "%"}, {"measurement": "Ratio IC50", "setting": "[10]", "result": 2}, {"measurement": "inhibition", "setting": "[11]", "result": "Dose-dependent effect"}, {"measurement": "Activity", "setting": "T29 [12]", "result": "Active"}, {"measurement": "Activity", "setting": "T29 [13]", "result": "Active"}, {"measurement": "Activity", "setting": "[14]", "result": "Active"}, {"measurement": "Activity", "setting": "[15]", "result": "Active"}, {"measurement": "IC50", "setting": "[2]", "result": 0.9, "unit": "µM"}, {"measurement": "Activity", "setting": "T29 [16]", "result": "Active"}, {"measurement": "inhibition", "setting": "[17]", "result": "Dose-dependent effect"}, {"measurement": "inhibition", "setting": "[18]", "result": "Dose-dependent effect"}, {"measurement": "inhibition", "setting": "[19]", "result": "inactive"}, {"measurement": "inhibition", "setting": "[20]", "result": "Dose-dependent effect"}, {"measurement": "Activity", "setting": "T29 [21]", "result": "Active"}, {"measurement": "inhibition", "setting": "[22]", "result": "Dose-dependent effect"}, {"measurement": "Activity", "setting": "[23]", "result": 8.5, "unit": "%"}, {"measurement": "inhibition", "setting": "[24]", "result": "Dose-dependent effect"}]}]}
